# Source: patent US9394352B2, “Immunogenic POTE peptides and methods of use” (The United States of America, as represented by the …, priority 2010, dated 2016)
# Assays:
# [1] = test system: IFN-γ secreting spleen cells; test: ex vivo IFN-γ ELISPOT assay on splenocytes of peptide-immunized AAD mice; assay type: in vivo; conditions: AAD mice immunized s.c., splenocytes pooled from three mice two weeks after boost
# Method: FIGS. 3A and 3B are graphs showing immunogenicity of the wild type and enhanced POTE 252 epitopes in AAD mice. AAD mice were immunized subcutaneously with a mixture of peptide and cytokines in adjuvant as described in Example 1. (FIG. 3A) Two weeks after the second boost, splenocytes pooled from three mice were restimulated with splenocytes of naïve AAD mice pulsed with 1.0 μM of each peptide at different effector to target (E/T) ratios. Cells were cultured in anti-mouse IFN-γ antibody coated ELISPOT™ plates. After overnight culture, biotinylated anti-mouse IFN-γ antibodies were added to each well. ELISPOT™ substrates were added to develop the color and spots were counted by an ELISPOT™ reader (AID ELISPOT™ reader system). Figures show numbers of spots per million cells. (FIG. 3B) CTL cross-reactivity on each peptide. Two weeks after the second boost, pooled spleen cells from three mice were restimulated with irradiated splenocytes pulsed with 1.0 μM of peptide for 7 days. In a 4-hour ^51Cr release assay, CIR.AAD cells were pulsed with 1.0 μM of peptide and labeled with ^51Cr. After washing three times, target cells were mixed with different numbers of effector cells and then cultured for 4 hours before harvesting.
# FIGS. 4A-4D are graphs showing immunogenicity of the wild type and enhanced POTE 553 epitopes in AAD mice. AAD mice were immunized subcutaneously with a mixture of peptide and cytokines in adjuvant. (FIGS. 4A and 4B) Two weeks after the second boost, splenocytes pooled from three mice were restimulated with splenocytes of naïve AAD mice pulsed with 10 nM to 1.0 μM of each peptide at different E/T ratios. Cells were cultured in anti-mouse IFN-γ antibody coated ELISPOT™ plates. After overnight culture, biotinylated anti-mouse IFN-γ antibodies were added to each well. ELISPOT™ substrates were added to develop color and spots were counted by an ELISPOT™ reader (AID ELISPOT™ reader system). Figures show numbers of spots per million cells. (FIGS. 4C and 4D) CTL cross-reactivity on each peptide. Two weeks after the second boost, pooled spleen cells from three mice were restimulated with irradiated splenocytes pulsed with 1.0 μM of peptide for 7 days. In a 4-hour ^51Cr release assay, CIR.AAD cells were pulsed with 1.0 μM of peptide and labeled with ^51Cr. After washing three times, target cells were mixed with different numbers of effector cells and then cultured for 4 hours before harvesting.
# FIGS. 5A and 5B are graphs showing immunogenicity of the POTE 272 epitope in AAD mice. AAD mice were immunized subcutaneously with a mixture of peptide and cytokines in adjuvant. (FIG. 5A) Two weeks after the second boost, splenocytes pooled from three mice were restimulated with splenocytes of naïve AAD mice pulsed with 1.0 μM POTE 272 peptide at different E/T ratios. Cells were cultured in anti-mouse IFN-γ antibody coated ELISPOT™ plates. After overnight culture, biotinylated anti-mouse IFN-γ antibodies were added in each well. ELISPOT™ substrates were added to develop color and spots were counted by an ELISPOT™ reader (AID ELISPOT™ reader system). Figures show numbers of spots per million cells. (FIG. 5B) CTL reactivity on POTE 272 peptide. Two weeks after the second boost, pooled spleen cells from three mice were restimulated with irradiated splenocytes pulsed with 1.0 μM POTE 272 peptide for 7 days. In a 4-hour ^51Cr release assay, CIR.AAD cells were pulsed with 1.0 μM POTE 272 peptide and labeled with ^51Cr. After washing three times, target cells were mixed with different numbers of effector cells and then cultured for 4 hours before harvesting.
# FIGS. 6A and 6B are graphs showing immunogenicity of the wild type and enhanced POTE 323 epitopes in AAD mice. AAD mice were immunized subcutaneously with a mixture of peptide and cytokines in adjuvant. (FIG. 6A) Two weeks after the second boost, splenocytes pooled from three mice were restimulated with splenocytes of naïve AAD mice pulsed with 1.0 μM of each peptide at different E/T ratios. […]
# HLA-A2/POTE252 tetramer = test: HLA-A2/peptide tetramer stain and TCR Vβ repertoire of CTLs from immunized HHD-2 mice; assay type: in vivo; conditions: after 1-week in vitro stimulation with cognate peptide
# Method: FIGS. 7A-7C are FACS plots showing HLA-A2/peptide tetramer staining and T cell receptor (TCR) repertoire determination for POTE 252- and POTE 252-9V-induced CTLs. HHD-2 mice were immunized subcutaneously with a mixture of peptide and cytokines in adjuvant. Two weeks after the second boost, pooled spleen cells from three mice were restimulated with irradiated splenocytes pulsed with 1.0 μM of peptide for 1 week. (FIG. 7A) Percentage of the HLA-A2/POTE252 tetramer-positive cells in the POTE 252- and POTE 252-9V-induced CTLs. (FIG. 7B) TCR Vβ repertoires of the tetramer^+CD8^+ T cells in POTE 252-induced CTLs. (FIG. 7C) TCR Vβ repertoires of the tetramer^+CD8^+ T cells in POTE 252-9V-induced CTLs.
# AAD or HHD-2 mice were immunized subcutaneously (s.c.) in the base of the tail with 100 μl of an emulsion containing 1:1 incomplete Freund's adjuvant (Sigma) and PBS with peptides and cytokines (50 nmol of CTL epitope, 50 nmol of hepatitis B virus core 128-140 helper epitope, 5 μg of mouse interleukin-12, and 5 μg of mouse granulocyte macrophage colony-stimulating factor). Cytokines were purchased from Peprotech (Rocky Hill, N.J.). Mice were boosted 2 weeks later, and the spleens were removed 2 weeks after the boost. For all experiments, groups of three mice were used. […]
sequence,measurement,setting,value
"KLMAKALLL [POTE 252-260, unmodified 9-mer peptide, residues 252-260 of human POTE]",IFN-γ response (ELISPOT spots) on stimulation with the immunizing peptide,[1],induced a significant number of IFN-γ spots
same,tetramer-positive CD8+ T cells,HLA-A2/POTE252 tetramer,9.3%
